# Results published in patent publication US12256733B2, “Antimicrobial mixture containing 4-(3-ethoxy-4-hydroxyphenyl)butan-2-one and an acid or silver-based compound, and cosmetic composition containing same” (L'OREAL, priority 2018, dated 2025).
# What was measured:
# Test in all cases: Synergistic antimicrobial activity as MIC, 96-well microplate, optical density at 620 nm
# Assay type in all cases: cell-based
# [1] = test system: Staphylococcus aureus ATCC 6538
# Text: (§1) 1] with: • MIC of A with B: minimum concentration of product A in the combination A+B which makes it possible to obtain an inhibitory effect; • MIC of B with A: minimum concentration of product B in the combination A+B which makes it possible to obtain an inhibitory effect; • MIC of A: minimum inhibitory concentration of product A alone; • MIC of B: minimum inhibitory concentration of product B alone. This formula was described for the first time in the article by F. C. Kull, P. C. Eisman, H. D. Sylwestrowka, and R. L. Mayer, Applied Microbiology 9:538-541, 1961.
# (§2) When the FIC index value is less than or equal to 1, it is considered that the combination of test compounds has a synergistic effect.
# The microbial strain Staphylococcus aureus ATCC 6538 and a double-concentration nutrient broth liquid culture medium were used.
# (§3) A 96-well microplate at an incubation temperature of 32.5° C. is used.
# (§4) The incubation time of the microplate is: • from 24 to 30 h under aerobic conditions for microbial Aspergillus niger ATCC 6275; • from 18 to 24 h under aerobic conditions for Candida albicans ATCC 10231, Pseudomonas aeruginosa ATCC 9027 and Staphylococcus aureus ATCC 6538; • from 24 to 48 h under aerobic conditions for Enterococcus faecalis ATCC 33186. Tests
# (§5) A 10% (weight/volume) stock solution was prepared by mixing 1 g of compound in 9 ml of aqueous 1‰ agar solution. Successive dilutions were made with the 1‰ agar solution.
# (§6) 50 μl of each of the daughter solutions obtained containing compound A or B are added to the microplate wells. 100 μl of Sabouraud liquid nutrient broth inoculated at double concentration with the Aspergillus niger strain and 50 μl of aqueous 1‰ agar solution are also added thereto.
# (§7) 50 μl of each of the daughter solutions obtained containing compound A and 50 μl of each of the daughter solutions obtained containing compound B are added to the microplate wells. 100 μl of Sabouraud liquid nutrient broth inoculated at double concentration with the strain Aspergillus niger are also added thereto.
# (§8) A positive microbial growth control was also prepared. The positive microbial growth control corresponds to a mixture of 100 μl of aqueous 1‰ agar solution with 100 μl of Sabouraud liquid nutrient broth inoculated at double concentration with the strain Aspergillus niger in the absence of compounds A and B.
# (§9) An absorbance control was performed in parallel on compounds A and B alone. This control corresponds to 100 μl of double concentration sterile Sabouraud liquid nutrient broth+100 μl of double concentration compound A or B.
# (§10) In the three cases (absorbance control, growth control and test), the final volume present in each of the microplate wells is 200 μl.
# (§11) In the two cases (test and control), the inoculum represents the concentration of the Aspergillus niger strain present in the final volume of the wells (200 μl) and is between 2 and 6×10^5 cfu/ml of Aspergillus niger.
# (§12) The test as described above (tests, absorbance control and growth control) was performed again to test the combination A+B on the following strains Enterococcus faecalis, Staphylococcus aureus, Pseudomonas aeruginosa, Candida albicans, where appropriate.
# The following results were obtained with the compound B1=trisodium salt of ethylenediaminedisuccinic acid (as an aqueous solution at 30% by weight): sold under the name Natrlquest E30 by the company Innospec Active Chemicals.
# [2] = test system: Candida albicans ATCC 10231
# Text: as §1, §2
# The microbial strain Candida albicans ATCC 10231, and a double-concentration Sabouraud broth liquid culture medium were used (i.e. a mixture of 5 g of Phytagel+0.6 g Tween 40+60 g of Sabouraud broth).
# as §3, §4, §5, §6, §7, §8, §9, §10, §12
# [3] = test system: Aspergillus niger ATCC 6275
# Text: as §1
# The microbial strain Aspergillus niger ATCC 6275, and a double-concentration Sabouraud broth liquid culture medium supplemented with polyoxyethylenated (20 OE) sorbitan monopalmitate (Tween 40 from Croda) and Phytagel© BioReagent were used (i.e. a mixture of 5 g of Phytagel+0.6 g of Tween 40+60 g of Sabouraud broth).
# as §3, §4, §5, §6, §7, §8, §9, §10, §11
# [4] = test system: Enterococcus faecalis ATCC 33186
# Text: as §1
# The microbial strain Enterococcus faecalis ATCC 33186 and a double-concentration BHI (Brain Heart Infusion) broth liquid culture medium were used.
# as §3, §4, §5, §6, §7, §8, §9, §10, §12
# [5] = 0.0625% A alone (active material weight %)
# [6] = first concentration with growth <= 25%
molecule,measurement,setting,value
"CCOc1cc(CCC(C)=O)ccc1O [A, 4-(3-ethoxy-4-hydroxyphenyl)butan-2-one]",microbial growth percentage,[1]; [5],76%
same,microbial growth percentage,[1]; 0.125% A alone,72%
same,microbial growth percentage,[1]; 0.25% A alone,71%
same,microbial growth percentage,[1]; 0.5% A alone,40%
same,microbial growth percentage,[1]; 1% A alone,−23%
same,% MIC of A alone,[1]; [6],1%
same,microbial growth percentage,[2]; [5],76%
same,microbial growth percentage,[2]; 0.125% A alone,64%
same,microbial growth percentage,[2]; 0.25% A alone,36%
same,microbial growth percentage,[2]; 0.5% A alone,5%
same,% MIC of A alone,[2]; [6],0.5%
same,microbial growth percentage,[3]; 0.025% A alone (weight %),44%
same,microbial growth percentage,[3]; 0.05% A alone,32%
same,microbial growth percentage,[3]; 0.1% A alone,13%
same,% MIC of A alone,[3]; [6],0.1%
same,microbial growth percentage,[4]; [5],31%
same,microbial growth percentage,[4]; 0.125% A alone,36%
same,microbial growth percentage,[4]; 0.25% A alone,39%
same,microbial growth percentage,[4]; 0.5% A alone,−9%
same,MIC of product alone,[4]; [6],0.5%
"O=C([O-])C[C@H](NCCN[C@@H](CC(=O)[O-])C(=O)O)C(=O)[O-].[Na+].[Na+].[Na+] [B1, trisodium salt of ethylenediaminedisuccinic acid]",microbial growth percentage,[1]; 0.0375% B1 alone,97%
same,microbial growth percentage,[1]; 0.075% B1 alone,80%
same,microbial growth percentage,[1]; 0.15% B1 alone,66%
same,microbial growth percentage,[1]; 0.3% B1 alone,37%
same,microbial growth percentage,[1]; 0.6% B1 alone,1%
same,% MIC of B1 alone,[1]; [6],0.6%
"CCCCCC1C(O)CCC1CC(=O)[O-].[Na+] (stereo not drawn) [B2, sodium salt of 3-hydroxy-2-pentylcyclopentaneacetic acid]",microbial growth percentage,[2]; 0.34% B2 alone,43%
same,microbial growth percentage,[2]; 0.68% B2 alone,6%
same,% MIC of B2 alone,[2]; [6],0.68%
"O=C([O-])CNCO.[Na+] [B4, sodium hydroxymethylglycinate]",microbial growth percentage,[4]; 0.005% B4 alone,32%
same,microbial growth percentage,[4]; 0.01% B4 alone,11%
same,% MIC of B4 alone,[4]; [6],0.1%
silver citrate hydrate [B3],microbial growth percentage,[3]; 0.025% B3 alone,47%
same,microbial growth percentage,[3]; 0.05% B3 alone,40%
same,microbial growth percentage,[3]; 0.1% B3 alone,9%
same,% MIC of B3 alone,[3]; [6],0.1%
